Source: patent publication US12398141B2 (SHANGHAI SYNERGY PHARMACEUTICAL SCIENCES CO., LTD, priority 2019, dated 2025)

Legend:
Type in all cases: biochemical
JAK1 = JAK1 (Homo sapiens (Human), UniProt P23458); assay: JAK1 LANCE Ultra kinase assay; conditions: for IC50: 38 uM ATP; for JAK2/JAK1: ratio of IC50 JAK2 to IC50 JAK1
Procedure: Inhibition test on activity of JAK kinase in vitro was carried out by the following methods.
JAK1 LANCE® Ultra assay, JAK2 LANCE® Ultra assay and JAK3 LANCE® Ultra assay were used to carry out the test separately, and kits of the above assays were supplied by PerkinElmer. […]
JAK1, JAK2 and JAK3 kinase, ATP and substrates were dissolved and diluted with buffers.
A test liquid was 2 nM Eu-W1024 anti-phosphotyrosine (PerkinElmer, AD0069). A stop buffer was 10 mM edetic acid (Intech, 1842C505).
2.5 μl of an 8-fold solution of the compound and 5 μl of a 4-fold solution of JAK1 or JAK2 or JAK3 kinase were added into a 384-well plate, respectively, and reacted for 10 minutes at room temperature. 2.5 μl of an 8-fold solution of ULight™-JAK-1 peptide/ATP was added and reacted for 90 minutes at room temperature. Finally, 5 μl of 4-fold edetic acid stop buffer and 5 μl of 4-fold test liquid of Eu-W1024 anti-phosphotyrosine were added and incubated for 60 minutes.
According to the formula: percentage of inhibition rate=(maximum value−transform value)/(maximum value−minimum value)×100, inhibition rate of each compound at various concentrations was calculated. The maximum value was the reference value of dimethyl sulfoxide added into the well plate, the minimum value was the blank value, and the transform value is the value obtained by the well of each compound. The IC50 values of the corresponding compounds were then obtained by fitting by using the XLFit fitting tool in excel.

JAK2 = JAK2 (Homo sapiens (Human), UniProt O60674); assay: JAK2 LANCE Ultra kinase assay; conditions: 12 uM ATP
Chain of JAK2 (O60674 whole entry): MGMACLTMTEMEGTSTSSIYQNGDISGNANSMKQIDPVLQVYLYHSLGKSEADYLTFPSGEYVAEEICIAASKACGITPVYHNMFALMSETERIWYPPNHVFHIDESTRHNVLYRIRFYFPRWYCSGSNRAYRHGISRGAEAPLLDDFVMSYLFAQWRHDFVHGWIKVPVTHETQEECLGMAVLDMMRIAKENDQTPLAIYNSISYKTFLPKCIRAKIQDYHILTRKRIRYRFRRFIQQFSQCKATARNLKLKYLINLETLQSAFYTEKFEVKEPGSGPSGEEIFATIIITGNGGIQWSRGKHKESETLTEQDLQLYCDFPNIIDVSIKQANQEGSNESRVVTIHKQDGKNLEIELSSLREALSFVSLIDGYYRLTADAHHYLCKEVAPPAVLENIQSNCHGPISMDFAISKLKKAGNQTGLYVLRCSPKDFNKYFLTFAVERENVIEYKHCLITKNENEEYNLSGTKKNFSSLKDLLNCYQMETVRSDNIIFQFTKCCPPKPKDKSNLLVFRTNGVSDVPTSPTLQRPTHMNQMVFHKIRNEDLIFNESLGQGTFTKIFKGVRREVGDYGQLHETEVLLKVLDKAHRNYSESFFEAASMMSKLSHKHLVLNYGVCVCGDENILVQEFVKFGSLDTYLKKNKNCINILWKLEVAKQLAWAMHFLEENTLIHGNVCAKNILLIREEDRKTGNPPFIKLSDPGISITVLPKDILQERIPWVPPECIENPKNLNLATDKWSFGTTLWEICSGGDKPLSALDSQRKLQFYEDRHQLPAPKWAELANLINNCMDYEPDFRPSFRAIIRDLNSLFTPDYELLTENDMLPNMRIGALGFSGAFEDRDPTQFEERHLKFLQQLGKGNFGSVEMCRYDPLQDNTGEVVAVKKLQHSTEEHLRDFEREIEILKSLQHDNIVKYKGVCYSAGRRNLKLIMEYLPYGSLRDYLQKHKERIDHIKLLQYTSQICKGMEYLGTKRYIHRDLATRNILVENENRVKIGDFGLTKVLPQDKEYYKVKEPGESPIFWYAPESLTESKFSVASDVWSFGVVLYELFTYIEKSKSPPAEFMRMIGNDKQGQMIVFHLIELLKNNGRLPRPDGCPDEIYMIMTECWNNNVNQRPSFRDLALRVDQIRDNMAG

JAK3 = JAK3 (Homo sapiens (Human), UniProt P52333); assay: JAK3 LANCE Ultra kinase assay; conditions: 4 uM ATP
Chain of JAK3 (P52333 whole entry): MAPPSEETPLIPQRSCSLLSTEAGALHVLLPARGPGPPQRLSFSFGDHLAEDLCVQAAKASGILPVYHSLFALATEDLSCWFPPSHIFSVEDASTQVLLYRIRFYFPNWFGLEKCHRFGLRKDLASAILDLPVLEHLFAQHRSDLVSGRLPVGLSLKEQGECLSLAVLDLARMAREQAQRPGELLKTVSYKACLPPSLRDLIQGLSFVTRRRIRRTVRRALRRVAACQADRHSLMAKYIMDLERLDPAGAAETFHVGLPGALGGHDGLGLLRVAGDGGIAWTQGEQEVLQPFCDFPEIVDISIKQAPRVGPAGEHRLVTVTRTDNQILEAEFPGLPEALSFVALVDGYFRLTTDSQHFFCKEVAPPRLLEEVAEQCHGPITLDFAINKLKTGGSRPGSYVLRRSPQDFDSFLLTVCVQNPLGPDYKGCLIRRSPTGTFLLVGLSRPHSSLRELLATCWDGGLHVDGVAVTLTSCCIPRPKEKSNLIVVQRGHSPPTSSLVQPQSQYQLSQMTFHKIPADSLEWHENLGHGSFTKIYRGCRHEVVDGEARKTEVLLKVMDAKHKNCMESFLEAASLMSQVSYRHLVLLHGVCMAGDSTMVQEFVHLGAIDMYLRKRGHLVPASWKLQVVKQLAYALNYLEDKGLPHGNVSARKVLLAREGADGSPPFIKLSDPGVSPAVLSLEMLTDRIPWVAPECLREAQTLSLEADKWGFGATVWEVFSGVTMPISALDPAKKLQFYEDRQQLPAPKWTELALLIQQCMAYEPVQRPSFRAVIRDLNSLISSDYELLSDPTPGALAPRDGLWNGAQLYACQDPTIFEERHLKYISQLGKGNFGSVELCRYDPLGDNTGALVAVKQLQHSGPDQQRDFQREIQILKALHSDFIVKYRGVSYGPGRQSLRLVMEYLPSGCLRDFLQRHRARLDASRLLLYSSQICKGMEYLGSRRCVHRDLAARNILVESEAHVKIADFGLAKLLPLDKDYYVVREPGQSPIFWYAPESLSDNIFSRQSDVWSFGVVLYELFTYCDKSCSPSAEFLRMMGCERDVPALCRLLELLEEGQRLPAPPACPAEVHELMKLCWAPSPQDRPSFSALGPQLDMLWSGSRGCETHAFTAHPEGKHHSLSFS

Chain of JAK1 (P23458 whole entry): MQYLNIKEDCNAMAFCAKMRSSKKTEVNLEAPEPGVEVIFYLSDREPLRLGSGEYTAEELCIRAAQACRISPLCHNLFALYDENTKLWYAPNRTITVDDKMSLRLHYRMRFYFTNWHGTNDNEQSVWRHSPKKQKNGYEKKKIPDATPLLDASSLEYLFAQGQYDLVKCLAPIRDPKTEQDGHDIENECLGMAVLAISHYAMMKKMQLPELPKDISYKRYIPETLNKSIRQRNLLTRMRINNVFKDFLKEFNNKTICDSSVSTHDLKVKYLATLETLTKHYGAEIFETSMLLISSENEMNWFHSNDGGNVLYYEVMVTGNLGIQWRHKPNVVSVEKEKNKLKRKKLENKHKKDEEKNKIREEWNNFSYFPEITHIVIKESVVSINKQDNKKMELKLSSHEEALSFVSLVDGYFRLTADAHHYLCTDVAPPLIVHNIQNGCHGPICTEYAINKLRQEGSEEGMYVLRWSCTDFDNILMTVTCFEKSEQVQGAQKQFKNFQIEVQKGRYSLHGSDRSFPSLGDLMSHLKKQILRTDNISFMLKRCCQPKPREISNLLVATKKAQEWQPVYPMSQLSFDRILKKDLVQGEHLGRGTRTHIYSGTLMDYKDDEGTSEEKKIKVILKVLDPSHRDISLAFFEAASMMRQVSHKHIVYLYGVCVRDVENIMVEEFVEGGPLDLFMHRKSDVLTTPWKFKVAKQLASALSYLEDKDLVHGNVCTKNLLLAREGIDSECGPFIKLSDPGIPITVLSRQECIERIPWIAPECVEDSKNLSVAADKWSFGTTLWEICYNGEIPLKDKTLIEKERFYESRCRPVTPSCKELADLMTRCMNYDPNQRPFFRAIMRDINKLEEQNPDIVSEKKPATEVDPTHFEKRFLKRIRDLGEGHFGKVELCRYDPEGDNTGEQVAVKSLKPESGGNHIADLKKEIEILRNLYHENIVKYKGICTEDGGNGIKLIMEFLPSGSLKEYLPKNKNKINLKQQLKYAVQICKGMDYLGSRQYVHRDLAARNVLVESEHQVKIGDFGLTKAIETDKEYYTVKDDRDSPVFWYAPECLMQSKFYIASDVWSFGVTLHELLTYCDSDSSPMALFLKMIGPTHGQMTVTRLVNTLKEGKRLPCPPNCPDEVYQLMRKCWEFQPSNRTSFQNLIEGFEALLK

Structure (SMILES)	IC50 (JAK1) [nM]	JAK2/JAK1 (JAK1)	IC50 (JAK2) [nM]	IC50 (JAK3) [nM]
N#Cc1cnc2[nH]ccc2c1N[C@H]1C[C@@H]2CN(C(=O)Nc3nc(C4CC4)ns3)C[C@@H]2C1 [Compound H49, (3aR,5s,6aS)-5-((5-cyano-1H-pyrrolo[2,3-b]pyridin-4-yl)amino)-N-(3-cyclopropyl-1,2,4-thiadiazole-5-yl)hexahydrocyclopentadiene[c]pyrrole-2(1H)-carboxamide]	5.43	2.76	15	178
C[C@H](O)C(=O)N1C[C@H]2C[C@H](N(C)c3c(C#N)cnc4[nH]ccc34)C[C@H]2C1 [Compound H23, (3aR,5S,6aS)-4-{[2-((2S)-2-hydroxypropionyl)-hexahydrocyclopenta[c]pyrrole-5-yl]-methyl-amino}-1H-pyrrolo[2,3-b]pyridin-5-carbonitrile]	7.16	18.85	135	533
CC[C@@H]1CC(NC(=O)Nc2nc(OC)ns2)C[C@@H]1Nc1c(C#N)cnc2[nH]ccc12 (stereo partly drawn) [Compound H61, 1-((3S,4R)-3-((5-cyano-1H-pyrrolo[2,3-b]pyridin-4-yl)amino)-4-ethylcyclopentyl)-3-(3-methoxy-1,2,4-thiadiazole-5-yl)urea]	8.23	15.31	126	589
CC(C)[C@@H]1CN(C(=O)NCC(F)(F)F)C[C@@H]1Nc1c(C#N)cnc2[nH]ccc12 (relative stereo) [Compound H73, (cis)-3-((5-cyano-1H-pyrrolo[2,3-b]pyridin-4-yl)amino)-4-isopropyl-N-(2,2,2-trifluoroethyl)pyrrolidin-1-carboxamide]	4.9	6.12	30	157
CC[C@@H]1CN(S(=O)(=O)CCC(F)(F)F)C[C@@H]1Nc1c(C#N)cnc2[nH]ccc12 (relative stereo) [Compound H76, 4-(((cis)-4-ethyl-1-((3,3,3-trifluoropropyl)sulfonyl)pyrrolidin-3-yl)amino)-1H-pyrrolo[2,3-b]pyridin-5-carbonitrile]	0.95	8.21	7.8	91
O=C(NCC(F)(F)F)N1C[C@H](Nc2c(C(F)(F)F)cnc3[nH]ccc23)[C@H](C2CC2)C1 (relative stereo) [Compound H91, (cis)-3-cyclopropyl-N-(2,2,2-trifluoroethyl)-4-((5-(trifluoromethyl)-1H-pyrrolo[2,3-b]pyridin-4-yl)amino)pyrrolidin-1-carboxamide]	0.92	20.33	18.7	96
CN(C)Cc1nsc(NC(=O)N2C[C@H]3C[C@H](Nc4c(C#N)cnc5[nH]ccc45)C[C@H]3C2)n1 [Compound H55, (3aR,5s,6aS)-5-((5-cyano-1H-pyrrole[2,3-b]pyridin-4-yl)amino)-N-(3-((dimethylamino)methyl)-1,2,4-thiadiazole-5-yl)hexahydrocyclopenta[c]pyrrole-2(1H)-carboxamide]	2.59	6.83	17.7	253
CN(c1c(C#N)cnc2[nH]ccc12)[C@H]1C[C@@H]2CN(C(=O)Nc3nc(C4CC4)no3)C[C@@H]2C1 [Compound H32, (3aR,5s,6aS)-4-({2-[(3-cyclopropyl-1,2,4-oxadiazole-5-yl)carbamoyl]-hexahydrocyclopenta[c]pyrrole-5-yl}-methyl-amino)-1H-pyrrolo[2,3-b]pyridin-5-carbonitrile]	5	2.60	13	27
CC[C@@H]1CN(CCC#N)C[C@@H]1Nc1c(C#N)cnc2[nH]ccc12 (relative stereo) [Compound H88, 4-(((cis)-1-(2-cyanoethyl)-4-ethylpyrrolidin-3-yl)amino)-1H-pyrrolo[2,3-b]pyridin-5-carbonitrile]	0.86	9.19	7.9	112
CCC1CN(C(=O)NCC(F)F)CC1Nc1c(C#N)cnc2[nH]ccc12 (centres unmarked) [Compound H87, 3-((5-cyano-1H-pyrrolo[2,3-b]pyridin-4-yl)amino)-N-(2,2-difluoroethyl)-4-ethylpyrrolidin-1-carboxamide]	5.1	8.82	45	73
COCc1nsc(NC(=O)N2C[C@H]3C[C@H](N(C)c4c(C#N)cnc5[nH]ccc45)C[C@H]3C2)n1 [Compound H56]	1.43	7.01	10	82
COCC1CCN(S(=O)(=O)C[C@H]2CC[C@H](N(C)c3c(C#N)cnc4[nH]ccc34)CC2)C1 (stereo partly drawn) [Compound H68, 4-((trans-4-(((3-(methoxymethyl)pyrrolidin-1-yl)sulfonyl)methyl)cyclohexyl)(methyl)amino)-1H-pyrrolo[2,3-b]pyridin-5-carbonitrile]	6.87	17.76	122	386
CC[C@@H]1CN(C(=O)CCC#N)C[C@@H]1Nc1c(C#N)cnc2[nH]ccc12 (relative stereo) [Compound H81, 4-(((cis)-1-(3-cyanopropionyl)-4-ethylpyrrolidin-3-yl)amino)-1H-pyrrolo[2,3-b]pyridin-5-carbonitrile]	9.3	12.58	117	162
COCCOc1nsc(NC(=O)N2C[C@H]3C[C@H](N(C)c4c(C#N)cnc5[nH]ccc45)C[C@H]3C2)n1 [Compound H51, (3aR,5S,6aS)-5-((5-cyano-1H-pyrrolo[2,3-b]pyridin-4-yl)(methyl)amino)-N-(3-(2-methoxyethoxy)-1,2,4-thiadiazole-5-yl)hexahydrocyclopenta[c]pyrrole-2(1H)-carboxamide]	6.89	4.49	30.9	101
N#Cc1cnc2[nH]ccc2c1N[C@H]1C[C@@H](NS(=O)(=O)c2cccc(C(F)(F)F)c2)C1 [Compound H13, (cis)-4-{[3-(3-(trifluoromethyl)benzenesulfonamido)-cyclobutyl-1-yl]-amino}-1H-pyrrolo[2,3-b]pyridin-5-carbonitrile]	2.96	7.09	21	58.9
CN(c1c(C#N)cnc2[nH]ccc12)[C@@H]1CC[C@H](CS(=O)(=O)N2CCC(CO)C2)C1 (some centres unmarked) [Compound H71]	1.13	8.67	9.8	70
CCOc1noc(NC(=O)N2C[C@H]3C[C@H](N(C)c4c(C#N)cnc5[nH]ccc45)C[C@H]3C2)n1 [Compound H47, (3aR,5s,6aS)-5-((5-cyano-1H-pyrrolo[2,3-b]pyridin-4-yl)(methyl)amino)-N-(3-ethoxy-1,2,4-oxadiazole-5-yl)hexahydrocyclopentadiene[c]pyrrole-2(1H)-carboxamide]	2.67	7.49	20	130
CN(c1c(C#N)cnc2[nH]ccc12)[C@H]1CC[C@H](CS(=O)(=O)N2CCC(CO)C2)CC1 (stereo partly drawn) [Compound H69, 4-((trans-4-(((3-(hydroxymethyl)pyrrolidin-1-yl)sulfonyl)methyl)cyclohexyl)(methyl)amino)-1H-pyrrolo[2,3-b]pyridin-5-carbonitrile]	0.81	9.01	7.3	90
CN1CCN(S(=O)(=O)C[C@H]2CC[C@H](N(C)c3c(C#N)cnc4[nH]ccc34)CC2)CC1 [Compound H63, Trans-4-(methyl((1r,4r)-4-(((4-methylpiperazin-1-yl)sulfonyl)methyl)cyclohexyl)amino)-1H-pyrrolo[2,3-b]pyridin-5-carbonitrile]	1.42	5.14	7.3	64
CN(c1c(C#N)cnc2[nH]ccc12)[C@H]1C[C@@H]2CN(C(=O)Nc3nc(C(C)(C)C)ns3)C[C@@H]2C1 [Compound H21, (3aR,5s,6aS)-4-({2-[(3-tert-butyl-1,2,4-thiadiazole-5-yl)carbamoyl]-hexahydrocyclopenta [c]pyrrole-5-yl}-methyl-amino)-1H-pyrrolo[2,3-b]pyridin-5-carbonitrile]	9.4	15.40	46	223
COc1nsc(NC(=O)N2C[C@H]3C[C@H](Nc4c(C#N)cnc5[nH]ccc45)C[C@H]3C2)n1 [Compound H20, (3aR,5s,6aS)-5-((5-cyano-1H-pyrrolo[2,3-b]pyridin-4-yl)amino)-N-(3-methoxy-1,2,4-thiadiazole-5-yl)hexahydrocyclopentadiene[c]pyrrole-2(1H)-carboxamide]	5.8	–	36	161
